Active and inactive are the calls of the source.
Legend:
Vero [1] = assay: cells; assay type: functional, cell-based; details: Chlorocebus sabaeus
[2] = fluconazole-exposed Candida albicans growth modulators – fluorescence, retest, confirmation (AID 2467); assay type: functional, cell-based
[3] = NIH-3T3 fibroblast cytotoxicity, dose response, cytotoxicity control, cell-based, fluorescence, Alamar Blue, secondary assay (AID 2327); assay type: functional;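 further: NIH-3T3 mouse fibroblasts cultured with fluconazole at 8 µg/mL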
[4] = molecular target: T1, Short transient receptor potential channel 4 (Mus musculus, UniProt Q9QUQ5); assay: calcium entry via TRPC4 opening agents – cell-based, HEK293 TRPC4/mu-opioid, Fluo-4 calcium, dose response (AID 434937); assay type: functional
T1 sequence (Q9QUQ5 whole entry): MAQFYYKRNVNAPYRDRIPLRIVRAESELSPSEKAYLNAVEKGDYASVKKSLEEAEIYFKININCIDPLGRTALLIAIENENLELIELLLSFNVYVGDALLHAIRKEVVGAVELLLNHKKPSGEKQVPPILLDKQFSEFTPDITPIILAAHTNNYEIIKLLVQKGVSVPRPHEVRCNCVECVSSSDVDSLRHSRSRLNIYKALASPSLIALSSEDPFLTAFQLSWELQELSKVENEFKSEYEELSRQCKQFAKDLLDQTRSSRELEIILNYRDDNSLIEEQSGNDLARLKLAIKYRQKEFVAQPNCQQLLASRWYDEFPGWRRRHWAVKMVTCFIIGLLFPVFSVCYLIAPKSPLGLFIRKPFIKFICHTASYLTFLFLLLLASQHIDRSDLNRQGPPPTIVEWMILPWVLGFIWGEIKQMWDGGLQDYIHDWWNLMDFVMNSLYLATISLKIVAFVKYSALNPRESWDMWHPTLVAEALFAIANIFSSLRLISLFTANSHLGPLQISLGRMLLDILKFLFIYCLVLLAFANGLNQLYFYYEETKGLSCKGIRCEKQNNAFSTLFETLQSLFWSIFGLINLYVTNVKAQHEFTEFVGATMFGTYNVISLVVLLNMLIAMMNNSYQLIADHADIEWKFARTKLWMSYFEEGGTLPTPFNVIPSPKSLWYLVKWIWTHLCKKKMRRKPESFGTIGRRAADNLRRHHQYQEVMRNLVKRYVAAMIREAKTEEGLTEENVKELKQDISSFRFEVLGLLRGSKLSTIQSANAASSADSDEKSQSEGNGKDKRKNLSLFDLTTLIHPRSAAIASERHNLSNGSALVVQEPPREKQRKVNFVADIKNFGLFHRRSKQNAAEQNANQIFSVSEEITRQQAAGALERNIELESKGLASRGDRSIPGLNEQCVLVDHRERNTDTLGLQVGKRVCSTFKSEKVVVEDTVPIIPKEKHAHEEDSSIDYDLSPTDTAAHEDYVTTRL

Cytochrome P450 1A2 = molecular target: T2, Cytochrome P450 1A2 (Homo sapiens, UniProt P05177);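 further: PubChem cytochrome P450 panel assay, CYP1A2 panel member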
T2 sequence (P05177 whole entry): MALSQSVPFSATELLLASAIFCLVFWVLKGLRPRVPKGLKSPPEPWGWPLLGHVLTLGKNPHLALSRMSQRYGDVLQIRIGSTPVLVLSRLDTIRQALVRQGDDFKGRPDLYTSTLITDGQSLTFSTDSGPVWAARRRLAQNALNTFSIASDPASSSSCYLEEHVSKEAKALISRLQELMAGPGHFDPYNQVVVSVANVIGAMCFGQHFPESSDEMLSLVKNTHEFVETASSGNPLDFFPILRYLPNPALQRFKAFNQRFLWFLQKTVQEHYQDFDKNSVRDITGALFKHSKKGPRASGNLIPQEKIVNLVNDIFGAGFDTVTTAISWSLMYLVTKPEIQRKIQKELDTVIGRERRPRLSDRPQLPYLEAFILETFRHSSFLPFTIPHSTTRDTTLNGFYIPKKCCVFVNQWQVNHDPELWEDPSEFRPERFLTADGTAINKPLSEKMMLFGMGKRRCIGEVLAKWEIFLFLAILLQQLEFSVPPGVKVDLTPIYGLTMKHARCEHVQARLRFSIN

[5] = molecular target: T3, Replicative DNA helicase DnaB (Mycobacterium tuberculosis, UniProt P9WMR3); assay: DnaB intein splicing inhibitors, dose response, biochemical, cell-free fluorescence (AID 449749); assay type: functional
T3 sequence (P9WMR3 whole entry): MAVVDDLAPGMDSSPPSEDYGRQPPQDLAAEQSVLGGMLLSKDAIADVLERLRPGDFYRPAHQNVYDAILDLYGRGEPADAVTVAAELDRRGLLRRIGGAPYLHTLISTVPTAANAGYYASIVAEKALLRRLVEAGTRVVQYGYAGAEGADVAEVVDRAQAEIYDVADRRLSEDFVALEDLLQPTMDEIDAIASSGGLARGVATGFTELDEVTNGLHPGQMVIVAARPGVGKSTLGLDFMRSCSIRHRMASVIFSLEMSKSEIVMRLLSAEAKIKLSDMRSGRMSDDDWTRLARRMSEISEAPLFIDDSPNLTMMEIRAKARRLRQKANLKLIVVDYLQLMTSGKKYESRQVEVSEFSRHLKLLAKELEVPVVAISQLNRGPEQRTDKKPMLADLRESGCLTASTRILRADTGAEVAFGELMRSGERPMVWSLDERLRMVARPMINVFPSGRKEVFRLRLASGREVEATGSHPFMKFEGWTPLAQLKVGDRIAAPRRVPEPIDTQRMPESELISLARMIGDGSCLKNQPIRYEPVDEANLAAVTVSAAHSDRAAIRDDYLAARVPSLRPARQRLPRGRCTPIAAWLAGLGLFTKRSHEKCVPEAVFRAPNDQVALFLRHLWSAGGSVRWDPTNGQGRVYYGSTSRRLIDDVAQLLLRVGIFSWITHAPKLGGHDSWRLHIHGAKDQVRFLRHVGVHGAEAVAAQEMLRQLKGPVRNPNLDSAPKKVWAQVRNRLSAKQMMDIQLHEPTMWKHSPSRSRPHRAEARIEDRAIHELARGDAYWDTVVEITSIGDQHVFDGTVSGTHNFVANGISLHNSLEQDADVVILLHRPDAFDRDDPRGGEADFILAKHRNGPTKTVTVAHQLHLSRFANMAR

Vero [6] = assay: cells; assay type: functional; details: Chlorocebus sabaeus
Cytochrome P450 2C19 = Cytochrome P450 2C19 (Homo sapiens, UniProt P33261); assay: Cytochrome panel assay with activity outcomes. Panel member name: p450-cyp2c19 Compounds with AC50 equal or less than 10 uM are considered active; assay type: functional; details: read-out: AC50
Sequence of Cytochrome P450 2C19 (P33261 whole entry): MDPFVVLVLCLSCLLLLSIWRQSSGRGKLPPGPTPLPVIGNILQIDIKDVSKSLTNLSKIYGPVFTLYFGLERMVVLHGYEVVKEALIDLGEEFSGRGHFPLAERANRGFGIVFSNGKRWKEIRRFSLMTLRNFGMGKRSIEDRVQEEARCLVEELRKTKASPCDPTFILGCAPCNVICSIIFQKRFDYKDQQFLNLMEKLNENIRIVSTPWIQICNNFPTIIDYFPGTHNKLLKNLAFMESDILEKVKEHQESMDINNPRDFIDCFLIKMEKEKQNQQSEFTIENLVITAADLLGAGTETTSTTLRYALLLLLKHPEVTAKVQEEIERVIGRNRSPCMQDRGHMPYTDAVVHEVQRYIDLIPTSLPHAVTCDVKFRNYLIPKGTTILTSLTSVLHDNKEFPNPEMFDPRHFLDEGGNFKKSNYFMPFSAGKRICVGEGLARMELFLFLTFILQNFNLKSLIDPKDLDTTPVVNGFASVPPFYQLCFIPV

Protein RecA = molecular target: T4, Protein RecA (Mycobacterium tuberculosis, UniProt P9WHJ3); assay: Fluorescence Cell-Free Homogeneous Dose Retest to Identify Inhibitors of RecA-Intein Splicing Activity. [Related pubchem assays (depositor defined):AID2097, AID2223, AID489010, AID492950]; assay type: functional
T4 sequence (P9WHJ3 whole entry): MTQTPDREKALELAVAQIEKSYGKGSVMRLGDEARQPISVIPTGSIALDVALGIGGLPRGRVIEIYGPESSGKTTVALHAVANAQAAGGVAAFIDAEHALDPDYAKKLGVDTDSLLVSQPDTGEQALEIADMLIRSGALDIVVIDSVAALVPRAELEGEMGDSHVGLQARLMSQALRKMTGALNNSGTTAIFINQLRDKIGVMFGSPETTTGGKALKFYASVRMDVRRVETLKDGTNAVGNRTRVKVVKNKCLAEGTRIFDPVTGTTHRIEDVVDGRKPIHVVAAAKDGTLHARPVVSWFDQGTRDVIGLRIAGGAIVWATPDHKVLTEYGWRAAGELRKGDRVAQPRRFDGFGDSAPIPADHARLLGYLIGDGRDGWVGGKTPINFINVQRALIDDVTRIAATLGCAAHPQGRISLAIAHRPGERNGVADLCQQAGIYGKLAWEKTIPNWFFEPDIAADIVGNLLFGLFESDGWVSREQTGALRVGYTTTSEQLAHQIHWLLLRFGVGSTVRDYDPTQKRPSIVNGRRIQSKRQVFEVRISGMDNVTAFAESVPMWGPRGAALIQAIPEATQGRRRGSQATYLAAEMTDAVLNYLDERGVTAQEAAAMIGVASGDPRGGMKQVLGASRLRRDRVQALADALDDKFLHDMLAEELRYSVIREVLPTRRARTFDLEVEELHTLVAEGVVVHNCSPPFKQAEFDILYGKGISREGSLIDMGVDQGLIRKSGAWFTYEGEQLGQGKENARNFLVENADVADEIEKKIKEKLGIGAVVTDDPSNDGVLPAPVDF

Cytochrome P450 2D6 = Cytochrome P450 2D6 (Homo sapiens, UniProt P10635);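 further: CYP2D6 member of a cytochrome P450 panel assay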
Sequence of Cytochrome P450 2D6 (P10635 whole entry): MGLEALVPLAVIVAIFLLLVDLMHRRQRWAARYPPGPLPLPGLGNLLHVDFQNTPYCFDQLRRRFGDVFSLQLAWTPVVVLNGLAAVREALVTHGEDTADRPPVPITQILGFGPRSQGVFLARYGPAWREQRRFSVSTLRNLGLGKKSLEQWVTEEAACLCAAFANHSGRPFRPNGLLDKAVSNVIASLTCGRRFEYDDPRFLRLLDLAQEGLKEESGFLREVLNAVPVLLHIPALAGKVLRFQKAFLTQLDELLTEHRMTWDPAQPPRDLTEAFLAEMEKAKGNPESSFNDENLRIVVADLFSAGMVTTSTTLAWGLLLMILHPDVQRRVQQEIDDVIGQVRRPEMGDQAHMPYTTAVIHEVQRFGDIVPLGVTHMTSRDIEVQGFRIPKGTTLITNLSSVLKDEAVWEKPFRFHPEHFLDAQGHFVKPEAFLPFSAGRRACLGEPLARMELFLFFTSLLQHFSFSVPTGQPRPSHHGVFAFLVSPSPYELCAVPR

[7] = HEK-293T viability loss after treatment – luminescence, T-cell screen hits, cytotoxicity control for TCR NF-kB inhibitor project, dose response (AID 489026); assay type: functional, cell-based;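 further: cells exposed to compound about 14 hours before the viability readout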
HEK293 [8] = assay: cells; assay type: functional, cell-based; details: Homo sapiens
Vero [9] = assay: mammalian cell viability reduction – secondary assay, cytotoxicity control for West Nile virus antiviral project, dose response (AID 1650); assay type: functional; details: Chlorocebus sabaeus
HEK293 [10] = assay: cells; assay type: functional, cell-based; details: Homo sapiens; remark: listed apart in the source
Beta-galactosidase = Beta-galactosidase (Escherichia coli, UniProt Q8VNN2); assay: PubChem AID 485352; assay type: functional
Sequence of Beta-galactosidase (Q8VNN2 whole entry): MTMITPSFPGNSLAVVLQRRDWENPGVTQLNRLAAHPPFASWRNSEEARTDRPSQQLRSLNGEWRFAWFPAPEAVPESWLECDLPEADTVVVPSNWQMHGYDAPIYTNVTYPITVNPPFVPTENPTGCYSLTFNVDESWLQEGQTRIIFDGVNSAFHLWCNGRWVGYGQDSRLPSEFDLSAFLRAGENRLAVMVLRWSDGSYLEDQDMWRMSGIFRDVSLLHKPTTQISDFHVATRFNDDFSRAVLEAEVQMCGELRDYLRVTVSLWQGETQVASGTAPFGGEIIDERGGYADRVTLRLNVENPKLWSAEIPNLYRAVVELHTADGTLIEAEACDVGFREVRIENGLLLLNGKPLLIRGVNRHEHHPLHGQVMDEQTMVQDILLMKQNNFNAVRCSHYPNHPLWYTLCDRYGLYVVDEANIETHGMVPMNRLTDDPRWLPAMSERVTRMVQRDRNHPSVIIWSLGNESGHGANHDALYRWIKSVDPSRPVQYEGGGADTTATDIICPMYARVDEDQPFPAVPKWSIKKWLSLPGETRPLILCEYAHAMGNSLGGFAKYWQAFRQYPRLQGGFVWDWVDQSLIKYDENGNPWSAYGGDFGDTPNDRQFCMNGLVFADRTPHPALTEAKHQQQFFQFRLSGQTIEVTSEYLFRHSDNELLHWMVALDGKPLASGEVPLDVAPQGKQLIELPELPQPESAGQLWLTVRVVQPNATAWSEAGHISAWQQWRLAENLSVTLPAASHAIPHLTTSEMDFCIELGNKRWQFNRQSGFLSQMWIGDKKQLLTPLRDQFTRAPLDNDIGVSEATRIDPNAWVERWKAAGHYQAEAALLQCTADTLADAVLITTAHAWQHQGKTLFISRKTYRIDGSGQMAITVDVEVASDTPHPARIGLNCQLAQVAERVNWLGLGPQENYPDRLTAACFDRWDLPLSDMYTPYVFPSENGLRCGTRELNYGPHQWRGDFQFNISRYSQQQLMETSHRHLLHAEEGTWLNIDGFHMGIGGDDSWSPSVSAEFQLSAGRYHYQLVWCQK

[11] = molecular target: T5, Type-1 angiotensin II receptor (Homo sapiens, UniProt P30556); assay: antagonism of angiotensin II type 1 receptor – cell-based, uHTS hits, selectivity assay for APJ receptor antagonist project, dose response (AID 463214); assay type: functional;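 further: antagonist potency against angiotensin II stimulated AT1 response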
T5 sequence (P30556 whole entry): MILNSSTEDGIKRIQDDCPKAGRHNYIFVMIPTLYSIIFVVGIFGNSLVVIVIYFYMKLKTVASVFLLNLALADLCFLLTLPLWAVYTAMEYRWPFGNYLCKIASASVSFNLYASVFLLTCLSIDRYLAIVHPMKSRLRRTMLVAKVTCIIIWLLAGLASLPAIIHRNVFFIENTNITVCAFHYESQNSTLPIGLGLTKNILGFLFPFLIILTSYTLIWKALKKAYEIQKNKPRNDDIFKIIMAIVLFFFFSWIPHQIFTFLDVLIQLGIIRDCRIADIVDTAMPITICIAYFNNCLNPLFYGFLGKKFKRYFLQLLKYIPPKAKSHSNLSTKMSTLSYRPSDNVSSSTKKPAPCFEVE

HEK293 [12] = assay: cells; assay type: functional, cell-based; details: Homo sapiens; remark: listed apart in the source
[13] = molecular target: Nucleotide-binding oligomerization domain-containing protein 2 (Homo sapiens, UniProt Q9HC29); assay: inhibition of NOD2-driven NF-kB reporter – cell-based, luminescence, uHTS, HEK293 (AID 1566); assay type: functional
Sequence of Nucleotide-binding oligomerization domain-containing protein 2 (Q9HC29 whole entry, the tested form may be a part): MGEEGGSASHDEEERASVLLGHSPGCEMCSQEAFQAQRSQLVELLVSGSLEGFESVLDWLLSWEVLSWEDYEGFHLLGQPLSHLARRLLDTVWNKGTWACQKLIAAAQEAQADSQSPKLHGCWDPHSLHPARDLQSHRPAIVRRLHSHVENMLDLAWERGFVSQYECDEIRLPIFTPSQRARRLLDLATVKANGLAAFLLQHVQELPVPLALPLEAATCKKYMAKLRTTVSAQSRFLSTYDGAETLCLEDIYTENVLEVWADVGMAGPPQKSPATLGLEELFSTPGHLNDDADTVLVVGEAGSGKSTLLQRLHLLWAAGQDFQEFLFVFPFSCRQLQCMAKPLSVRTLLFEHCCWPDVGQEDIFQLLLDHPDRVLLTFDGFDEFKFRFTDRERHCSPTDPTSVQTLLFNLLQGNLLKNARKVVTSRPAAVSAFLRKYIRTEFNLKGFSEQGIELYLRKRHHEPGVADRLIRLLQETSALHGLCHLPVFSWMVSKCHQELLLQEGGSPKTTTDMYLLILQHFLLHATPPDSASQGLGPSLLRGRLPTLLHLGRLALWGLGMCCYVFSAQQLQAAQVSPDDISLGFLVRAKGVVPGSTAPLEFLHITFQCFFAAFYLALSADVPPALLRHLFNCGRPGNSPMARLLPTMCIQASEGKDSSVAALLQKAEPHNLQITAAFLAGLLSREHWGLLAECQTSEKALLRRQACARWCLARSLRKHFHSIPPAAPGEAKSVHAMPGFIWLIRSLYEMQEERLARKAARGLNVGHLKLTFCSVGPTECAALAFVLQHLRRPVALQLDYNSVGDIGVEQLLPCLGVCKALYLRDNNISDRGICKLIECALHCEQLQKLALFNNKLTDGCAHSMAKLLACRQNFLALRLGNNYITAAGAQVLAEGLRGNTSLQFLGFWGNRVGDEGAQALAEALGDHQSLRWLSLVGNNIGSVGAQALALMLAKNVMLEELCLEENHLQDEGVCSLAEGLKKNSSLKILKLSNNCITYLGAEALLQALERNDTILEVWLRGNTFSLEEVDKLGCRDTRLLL

HEK293 [14] = assay: NOD2 signaling inhibitors in MDP-stimulated cells, cell-based, uHTS, luminescence (AID 2001); assay type: functional; details: Homo sapiens
INS1 = assay: INS-1E survival protection against cytokine death – cell-based, luminescence, retest, dose response (AID 449756); assay type: functional; details: Rattus norvegicus;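 further: cell death triggered by IL-1 beta plus TNF-alpha plus IFN-gamma mixture; protective hits raise ATP signal compared with cytokine alone wells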
HEK293 [15] = assay: inhibition of NOD1-driven NF-kB reporter – cell-based, luminescence, uHTS, primary screen (AID 1578); assay type: functional; details: Homo sapiens

Compound: COc1ccc(C(=O)NC(=S)NNC(=O)CCc2ccccc2)cc1
- IC50 (Vero [1]): 24.6 µM (active)
- EC50 [2]: 2.16 µM (active)
- EC50 [3]: > 150 µM (inconclusive)
- EC50 [4]: 5.96 µM (active)
- AC50 (Cytochrome P450 1A2): 15.8 µM (inconclusive)
- AC50 [5]: > 380 µM (inactive)
- CC50 (Vero [6]): 24.2 µM (active)
- AC50 (Cytochrome P450 2C19): 14.1 µM (inconclusive)
- EC50 (Protein RecA): > 380 µM (inactive)
- AC50 (Cytochrome P450 2D6): 15.8 µM (inconclusive)

Compound: Cc1ccc(C)c(N=Nc2ccc(O)c3ncccc23)c1
- IC50 [7]: > 80 µM (inactive)
- IC50 (HEK293 [8]): > 20 µM (inactive)
- CC50 (Vero [9]): 6.64 µM (active)
- EC50 [2]: 1.57 µM (active)
- IC50 (HEK293 [10]): > 20 µM (inactive)
- EC50 (Beta-galactosidase): > 40 µM (inactive)
- IC50 [11]: 9.84 µM (active)
- IC50 (HEK293 [12]): 1.89 µM (active)
- EC50 [3]: 17 µM (active)
- EC50 [13]: > 20 µM (inactive)
- IC50 (HEK293 [14]): 3 µM (active)
- AC50 (INS1): 1.29 µM (active)
- EC50 (HEK293 [15]): 4.12 µM (active)
